Read-outs that look alike come from different tables or passages of the source.
Assay: Total QST levels in plasma and flank tumors (LC-MS/MS)
Format: in vivo
Conditions: athymic nude, mouse, 10 mg/kg
Experimental: QST concentrations in specimens were measured using reverse-phase LC on the AB SCIEX QTRAP6500+ LC-MS/MS system by operating electrospray in the positive ion mode. For liquid chromatographic separation, gradient elution was performed using a Phenomenex Kinetex F5 100 Å column (100 × 2.1 mm, 2.6 μm). The initial composition of the mobile phase was 70% phase A (0.1% formic acid in water) and 30% phase B (0.1% formic acid in 1:1 acetonitrile/methanol) with a 0.35 mL/min flow rate. Gradient elution was achieved as follows: mobile phase (B) was maintained at 30% from 0 to 0.3 minutes, increased to 95% from 0.3 to 0.8 minutes, maintained at 95% from 0.8 to 2.5 minutes, and decreased to 30% from 2.5 to 2.8 minutes. The total run time was 3.5 minutes. The internal standard used in this study was D8-infigratinib. The retention times for QST and D8-infigratinib were 1.6 and 1.8 minutes, respectively. Mass-to-charge ratio transitions were as follows: 395.20 → 144.00 (QST) and 568.08 → 321.00 (D8-infigratinib). LC-MS/MS analysis was performed using an Analyst 1.7 Chromatographic Data System. See Supplemental Methods for detailed PK experiments. […]
treated with 2 Gy of ionizing radiation on MWF for a total 6 Gy (3 doses). Ionizing radiation was administered with the RS2000 series biological research irradiator (Rad Source Technologies).
Treatment of Flank-Implanted Mice with QST and/or Radiation
Implanted flank tumors were allowed to grow until the tumor size reached 100 mm3 volume. Mice were randomized into groups before treatment and underwent treatment on MWF for the entire duration of the experiment until the tumor volumes exceeded 2000 mm3. Treatment groups included vehicle (50% PEG-300), QST alone (10 mg/kg), flank IR treatment with vehicle (2 Gy), and flank IR treatment (2 Gy) with QST (10 mg/kg). For mice receiving IR treatment with or without QST, mice were treated with 2 Gy on MWF for a total 6 Gy during the first week of treatment. QST was administered to mice through intraperitoneal injections 2 hours before flank tumor radiation treatment. Upon completion of the radiation regimen, IR-treated mice subsequently received QST or vehicle alone for the rest of the experiment. Tumor growth and treatment response were monitored by manually measuring the tumor area twice per week starting at 13 days after implantation. Upon reaching the tumor volume threshold (2000 mm3), mice were sacrificed, and plasma and tissue samples were harvested for PD and PK analyses 2 hours after treatment with a final dose of QST (10 mg/kg). […]
Calibration Standards and Quality Control Samples
Stock solutions of standard (1 mM QST) and IS (250 µM D8-infigratinib) were prepared in acetonitrile. Working solutions for calibration curve standards and quality controls (QCs) were prepared by dilutions with a 40% methanol mixture aqueous solution. The IS precipitation solution (10 nM) was prepared from the IS stock solutions by dilution with methanol. Calibration standards and batch qualifying QCs were freshly spiked for every batch. For sample analysis in human and mouse matrices, calibration standards were prepared in bulk by spiking appropriate amounts of working solutions into blank human plasma, used as a surrogate matrix due to the instability of QST in mouse plasma. For sample analysis in neural stem cell media and cell lysate, calibration standards were prepared in bulk by spiking appropriate amounts of working solutions into neural stem cell media. QC samples were prepared in bulk by spiking appropriate amounts of working solutions into blank mouse plasma or cell media. Preparation of calibration standards and QC samples was performed at 4 °C. Final concentrations range of the calibration standards were 1–1000 nM in human plasma or neural stem cell media. Three QC levels (low, medium, and high) were used during all sample analyses. The concentrations of QC samples in various matrices were 3 nM (low QC), 22 nM (medium QC), and 800 nM (high QC). All stock […]

Cn1cc(CNCC2CCN(c3ncc(C(=O)NO)cn3)CC2)c2ccccc21 [QST, quisinostat]
concentration at 2 h (flank tumor, intraperitoneal, Combination (QST+IR) cohort, read-out: [QST] total, flank tumor, Mean): 501 nM | concentration at 2 h (flank tumor, intraperitoneal, QST monotherapy cohort, read-out: [QST] total, flank tumor, Mean): 479 nM | concentration at 2 h (flank tumor, ip, QST- and combination-treated mice, 10 mg/kg IP, 2 hours after final dose, read-out: mean total QST concentration in flank tumors): ~433 nM | concentration at 2 h (plasma, intraperitoneal, Combination (QST+IR) cohort, read-out: [QST] total, plasma, Mean): 276 nM | concentration at 2 h (plasma, intraperitoneal, QST monotherapy cohort, read-out: [QST] total, plasma, Mean): 250 nM | concentration at 2 h (plasma, ip, QST- and combination-treated mice, 10 mg/kg IP, 2 hours after final dose, read-out: mean total QST concentration in plasma): ~300 nM
